Reference: ChEMBL document CHEMBL4507268 (2021)

Assays:
[1] = molecular target: Fibroblast growth factor receptor 4 (Homo sapiens) (UniProt P22455); conditions: Compound concentration 1000.0 nM
[2] = molecular target: T1, Mitogen-activated protein kinase kinase kinase 7 (Homo sapiens) (UniProt O43318); conditions: Compound concentration 1000.0 nM
T1 sequence (whole entry): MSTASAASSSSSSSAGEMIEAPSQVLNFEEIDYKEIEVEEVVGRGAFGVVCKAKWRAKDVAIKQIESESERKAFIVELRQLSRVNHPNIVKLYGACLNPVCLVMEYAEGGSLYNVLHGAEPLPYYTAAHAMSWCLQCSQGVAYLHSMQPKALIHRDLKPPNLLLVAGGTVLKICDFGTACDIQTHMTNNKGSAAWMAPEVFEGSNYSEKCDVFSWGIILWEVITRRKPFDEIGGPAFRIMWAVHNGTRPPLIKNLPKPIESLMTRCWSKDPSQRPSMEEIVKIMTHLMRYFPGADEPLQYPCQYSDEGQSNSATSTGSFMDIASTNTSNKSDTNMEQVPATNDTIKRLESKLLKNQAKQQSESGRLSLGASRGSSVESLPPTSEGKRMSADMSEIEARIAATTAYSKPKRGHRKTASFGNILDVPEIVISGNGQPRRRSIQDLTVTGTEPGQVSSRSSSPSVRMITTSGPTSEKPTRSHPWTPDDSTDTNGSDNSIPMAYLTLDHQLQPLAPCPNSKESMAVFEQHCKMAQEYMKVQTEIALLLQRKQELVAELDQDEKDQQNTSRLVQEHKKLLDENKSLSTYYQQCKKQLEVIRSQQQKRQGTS

[3] = molecular target: G protein-coupled receptor kinase 4 (Homo sapiens) (UniProt P32298); conditions: Compound concentration 1000.0 nM
Sequence of G protein-coupled receptor kinase 4 (Homo sapiens) (P32298 whole entry, looked up): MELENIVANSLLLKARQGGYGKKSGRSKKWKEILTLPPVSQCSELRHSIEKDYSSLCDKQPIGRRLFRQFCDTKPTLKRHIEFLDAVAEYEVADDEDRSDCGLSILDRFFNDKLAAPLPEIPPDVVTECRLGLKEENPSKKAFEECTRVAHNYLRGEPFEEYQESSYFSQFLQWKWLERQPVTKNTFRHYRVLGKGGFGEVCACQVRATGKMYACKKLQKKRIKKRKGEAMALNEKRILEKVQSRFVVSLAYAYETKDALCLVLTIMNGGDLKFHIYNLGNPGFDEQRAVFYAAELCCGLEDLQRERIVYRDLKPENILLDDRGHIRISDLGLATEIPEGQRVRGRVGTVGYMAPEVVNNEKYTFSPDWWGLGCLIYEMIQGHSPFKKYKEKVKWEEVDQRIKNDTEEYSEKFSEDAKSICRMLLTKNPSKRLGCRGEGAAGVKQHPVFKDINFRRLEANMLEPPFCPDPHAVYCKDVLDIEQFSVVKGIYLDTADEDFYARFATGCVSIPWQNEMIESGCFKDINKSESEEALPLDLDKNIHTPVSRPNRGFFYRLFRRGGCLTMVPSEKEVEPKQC

[4] = molecular target: Serine/threonine-protein kinase PLK3 (Homo sapiens) (UniProt Q9H4B4); conditions: Compound concentration 1000.0 nM
Sequence of Serine/threonine-protein kinase PLK3 (Homo sapiens) (Q9H4B4 whole entry, looked up): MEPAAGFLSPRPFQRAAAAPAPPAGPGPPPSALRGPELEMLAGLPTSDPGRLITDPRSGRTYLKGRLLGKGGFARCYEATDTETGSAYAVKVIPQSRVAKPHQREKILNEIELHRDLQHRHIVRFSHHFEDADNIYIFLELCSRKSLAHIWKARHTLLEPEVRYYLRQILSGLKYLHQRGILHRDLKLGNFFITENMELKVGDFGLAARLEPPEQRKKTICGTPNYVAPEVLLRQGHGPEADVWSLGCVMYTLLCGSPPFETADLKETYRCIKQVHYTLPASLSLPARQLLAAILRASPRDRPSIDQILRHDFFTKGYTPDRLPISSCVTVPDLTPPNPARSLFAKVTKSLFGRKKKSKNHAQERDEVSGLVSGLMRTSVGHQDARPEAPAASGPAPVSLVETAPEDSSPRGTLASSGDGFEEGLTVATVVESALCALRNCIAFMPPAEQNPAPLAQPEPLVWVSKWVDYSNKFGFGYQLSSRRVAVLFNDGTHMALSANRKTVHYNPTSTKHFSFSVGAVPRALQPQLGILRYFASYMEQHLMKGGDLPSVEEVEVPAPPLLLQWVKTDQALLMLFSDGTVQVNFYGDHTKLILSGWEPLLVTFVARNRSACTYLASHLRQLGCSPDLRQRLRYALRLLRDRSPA

[5] = molecular target: Alpha-2A adrenergic receptor (Homo sapiens) (UniProt P08913); conditions: Compound concentration 10.0 uM
Sequence of Alpha-2A adrenergic receptor (Homo sapiens) (P08913 whole entry): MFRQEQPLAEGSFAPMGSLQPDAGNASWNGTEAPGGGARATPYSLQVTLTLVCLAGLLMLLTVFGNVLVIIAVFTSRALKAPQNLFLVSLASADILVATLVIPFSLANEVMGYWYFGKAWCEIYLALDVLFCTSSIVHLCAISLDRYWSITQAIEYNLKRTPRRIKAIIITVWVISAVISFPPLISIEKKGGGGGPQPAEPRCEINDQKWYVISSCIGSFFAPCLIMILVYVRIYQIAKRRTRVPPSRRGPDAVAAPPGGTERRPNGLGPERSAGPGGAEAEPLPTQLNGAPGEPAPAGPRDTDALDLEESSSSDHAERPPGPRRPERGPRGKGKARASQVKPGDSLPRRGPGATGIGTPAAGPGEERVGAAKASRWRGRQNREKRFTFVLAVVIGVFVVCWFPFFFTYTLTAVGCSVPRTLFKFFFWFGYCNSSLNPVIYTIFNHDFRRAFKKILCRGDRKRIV

[6] = molecular target: Serine/threonine-protein kinase 32C (Homo sapiens) (UniProt Q86UX6); conditions: Compound concentration 1000.0 nM
Sequence of Serine/threonine-protein kinase 32C (Homo sapiens) (Q86UX6 whole entry): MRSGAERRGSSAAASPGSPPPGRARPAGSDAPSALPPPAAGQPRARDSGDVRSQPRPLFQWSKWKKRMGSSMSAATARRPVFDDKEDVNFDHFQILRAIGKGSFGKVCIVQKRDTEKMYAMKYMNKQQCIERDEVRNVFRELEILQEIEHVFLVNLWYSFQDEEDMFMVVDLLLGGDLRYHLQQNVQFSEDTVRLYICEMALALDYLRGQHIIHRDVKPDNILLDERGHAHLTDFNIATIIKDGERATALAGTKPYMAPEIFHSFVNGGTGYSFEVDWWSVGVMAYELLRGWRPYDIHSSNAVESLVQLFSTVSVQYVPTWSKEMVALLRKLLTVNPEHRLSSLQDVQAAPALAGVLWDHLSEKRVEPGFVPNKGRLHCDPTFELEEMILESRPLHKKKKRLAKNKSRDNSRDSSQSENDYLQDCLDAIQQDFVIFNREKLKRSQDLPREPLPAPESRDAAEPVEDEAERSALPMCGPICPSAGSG

[7] = molecular target: Platelet-derived growth factor receptor alpha (Homo sapiens) (UniProt P16234); conditions: Compound concentration 1000.0 nM
[8] = molecular target: Mitogen-activated protein kinase 9 (Homo sapiens) (UniProt P45984); conditions: Compound concentration 1000.0 nM
[9] = molecular target: Dual specificity protein kinase CLK2 (Homo sapiens) (UniProt P49760); conditions: Compound concentration 1000.0 nM
Sequence of Dual specificity protein kinase CLK2 (Homo sapiens) (P49760 whole entry, looked up): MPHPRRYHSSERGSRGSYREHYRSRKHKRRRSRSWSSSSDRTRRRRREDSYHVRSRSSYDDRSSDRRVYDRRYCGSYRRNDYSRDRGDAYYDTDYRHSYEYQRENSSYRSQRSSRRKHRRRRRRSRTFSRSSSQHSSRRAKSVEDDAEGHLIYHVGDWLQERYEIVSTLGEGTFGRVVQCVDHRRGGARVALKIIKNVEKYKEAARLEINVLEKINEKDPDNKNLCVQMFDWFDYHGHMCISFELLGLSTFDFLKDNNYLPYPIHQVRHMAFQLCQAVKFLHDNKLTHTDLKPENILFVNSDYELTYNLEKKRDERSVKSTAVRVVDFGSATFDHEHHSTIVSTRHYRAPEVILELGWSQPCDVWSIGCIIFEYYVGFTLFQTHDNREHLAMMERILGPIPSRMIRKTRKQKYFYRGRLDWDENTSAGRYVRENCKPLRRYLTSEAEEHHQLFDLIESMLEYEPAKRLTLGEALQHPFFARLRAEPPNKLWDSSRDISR

[10] = system: Hepatocyte growth factor receptor (Homo sapiens), P08581 [M1250T]; conditions: Compound concentration 1000.0 nM
[11] = molecular target: Angiopoietin-1 receptor (Homo sapiens) (UniProt Q02763); conditions: Compound concentration 1000.0 nM
Sequence of Angiopoietin-1 receptor (Homo sapiens) (Q02763 whole entry): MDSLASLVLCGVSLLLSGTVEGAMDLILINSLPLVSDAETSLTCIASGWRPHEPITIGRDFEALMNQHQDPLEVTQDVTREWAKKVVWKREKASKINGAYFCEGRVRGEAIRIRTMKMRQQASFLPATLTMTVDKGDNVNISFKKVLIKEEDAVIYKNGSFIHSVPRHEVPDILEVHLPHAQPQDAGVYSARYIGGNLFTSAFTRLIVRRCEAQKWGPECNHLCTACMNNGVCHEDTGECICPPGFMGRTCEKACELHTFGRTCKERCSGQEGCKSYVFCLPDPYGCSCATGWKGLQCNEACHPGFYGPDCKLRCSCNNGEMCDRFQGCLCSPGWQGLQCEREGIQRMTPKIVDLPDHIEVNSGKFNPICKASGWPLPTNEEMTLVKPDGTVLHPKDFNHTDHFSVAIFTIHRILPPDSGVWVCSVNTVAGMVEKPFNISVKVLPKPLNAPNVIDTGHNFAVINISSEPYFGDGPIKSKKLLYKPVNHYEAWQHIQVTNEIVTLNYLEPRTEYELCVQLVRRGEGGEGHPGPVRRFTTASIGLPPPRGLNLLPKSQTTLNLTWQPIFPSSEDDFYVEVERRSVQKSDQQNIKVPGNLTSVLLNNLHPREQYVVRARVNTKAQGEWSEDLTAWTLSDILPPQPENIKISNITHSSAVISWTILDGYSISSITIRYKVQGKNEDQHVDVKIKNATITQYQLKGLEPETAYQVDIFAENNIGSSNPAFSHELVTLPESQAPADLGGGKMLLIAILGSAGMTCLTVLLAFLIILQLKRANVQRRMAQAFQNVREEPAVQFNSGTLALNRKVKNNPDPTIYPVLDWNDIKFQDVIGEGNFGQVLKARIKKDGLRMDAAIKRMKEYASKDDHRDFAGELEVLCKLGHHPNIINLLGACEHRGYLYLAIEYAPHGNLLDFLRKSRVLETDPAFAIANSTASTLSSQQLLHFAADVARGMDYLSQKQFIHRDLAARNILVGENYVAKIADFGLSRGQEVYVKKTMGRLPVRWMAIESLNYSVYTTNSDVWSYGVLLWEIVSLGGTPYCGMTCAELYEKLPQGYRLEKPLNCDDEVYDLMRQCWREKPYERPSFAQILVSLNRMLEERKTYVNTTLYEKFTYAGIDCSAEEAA

[12] = system: Tyrosine-protein kinase ABL1 (Homo sapiens), P00519 [F317I]; conditions: Compound concentration 1000.0 nM
[13] = molecular target: Wee1-like protein kinase (Homo sapiens) (UniProt P30291); conditions: Compound concentration 1000.0 nM
[14] = molecular target: Kappa-type opioid receptor (Homo sapiens) (UniProt P41145); conditions: Compound concentration 10.0 uM
Sequence of Kappa-type opioid receptor (Homo sapiens) (P41145 whole entry): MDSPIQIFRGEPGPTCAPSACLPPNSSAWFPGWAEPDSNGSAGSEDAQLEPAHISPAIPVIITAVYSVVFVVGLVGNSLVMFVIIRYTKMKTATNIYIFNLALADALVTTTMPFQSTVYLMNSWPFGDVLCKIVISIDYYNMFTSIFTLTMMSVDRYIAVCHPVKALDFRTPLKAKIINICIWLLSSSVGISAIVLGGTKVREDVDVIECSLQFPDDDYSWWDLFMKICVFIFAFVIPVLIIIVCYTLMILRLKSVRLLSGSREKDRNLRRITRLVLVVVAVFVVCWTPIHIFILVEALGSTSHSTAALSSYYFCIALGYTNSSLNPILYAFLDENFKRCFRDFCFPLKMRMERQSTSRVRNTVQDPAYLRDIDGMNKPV

[15] = molecular target: T2, Serine/threonine-protein kinase ICK (Homo sapiens) (UniProt Q9UPZ9); conditions: Compound concentration 1000.0 nM
T2 sequence (whole entry): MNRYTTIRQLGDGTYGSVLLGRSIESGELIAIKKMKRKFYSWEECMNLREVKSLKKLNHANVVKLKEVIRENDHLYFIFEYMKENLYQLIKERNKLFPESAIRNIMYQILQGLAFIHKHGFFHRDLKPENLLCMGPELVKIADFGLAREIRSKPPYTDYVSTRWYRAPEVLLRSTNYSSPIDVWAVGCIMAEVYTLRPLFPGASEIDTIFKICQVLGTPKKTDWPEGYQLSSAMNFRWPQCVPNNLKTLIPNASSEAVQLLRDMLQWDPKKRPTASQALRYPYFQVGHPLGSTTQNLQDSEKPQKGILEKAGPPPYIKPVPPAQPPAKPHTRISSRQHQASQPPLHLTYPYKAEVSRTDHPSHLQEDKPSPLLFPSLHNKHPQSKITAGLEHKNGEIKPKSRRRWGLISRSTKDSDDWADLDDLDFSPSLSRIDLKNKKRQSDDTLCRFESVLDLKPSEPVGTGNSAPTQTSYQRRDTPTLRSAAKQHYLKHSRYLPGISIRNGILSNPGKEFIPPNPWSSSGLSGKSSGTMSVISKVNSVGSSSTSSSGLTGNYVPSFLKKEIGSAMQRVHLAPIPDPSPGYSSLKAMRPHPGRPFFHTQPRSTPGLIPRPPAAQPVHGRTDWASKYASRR

[16] = molecular target: T3, Serine/threonine-protein kinase Chk1 (Homo sapiens) (UniProt O14757); conditions: Compound concentration 1000.0 nM
T3 sequence (whole entry): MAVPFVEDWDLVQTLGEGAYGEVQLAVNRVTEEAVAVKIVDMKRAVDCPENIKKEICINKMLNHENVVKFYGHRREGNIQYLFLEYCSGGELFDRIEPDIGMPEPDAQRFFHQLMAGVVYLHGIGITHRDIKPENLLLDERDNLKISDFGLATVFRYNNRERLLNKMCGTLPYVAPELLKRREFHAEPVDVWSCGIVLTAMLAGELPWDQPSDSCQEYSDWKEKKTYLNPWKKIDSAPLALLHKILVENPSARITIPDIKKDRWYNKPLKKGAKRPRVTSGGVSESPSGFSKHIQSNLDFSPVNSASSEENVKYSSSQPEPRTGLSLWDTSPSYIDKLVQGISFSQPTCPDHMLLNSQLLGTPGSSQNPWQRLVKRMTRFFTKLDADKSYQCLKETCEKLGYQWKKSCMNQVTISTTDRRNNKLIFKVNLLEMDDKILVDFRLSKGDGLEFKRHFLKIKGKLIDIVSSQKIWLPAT

[17] = molecular target: Dual specificity protein kinase CLK3 (Homo sapiens) (UniProt P49761); conditions: Compound concentration 1000.0 nM
Sequence of Dual specificity protein kinase CLK3 (Homo sapiens) (P49761 whole entry, looked up): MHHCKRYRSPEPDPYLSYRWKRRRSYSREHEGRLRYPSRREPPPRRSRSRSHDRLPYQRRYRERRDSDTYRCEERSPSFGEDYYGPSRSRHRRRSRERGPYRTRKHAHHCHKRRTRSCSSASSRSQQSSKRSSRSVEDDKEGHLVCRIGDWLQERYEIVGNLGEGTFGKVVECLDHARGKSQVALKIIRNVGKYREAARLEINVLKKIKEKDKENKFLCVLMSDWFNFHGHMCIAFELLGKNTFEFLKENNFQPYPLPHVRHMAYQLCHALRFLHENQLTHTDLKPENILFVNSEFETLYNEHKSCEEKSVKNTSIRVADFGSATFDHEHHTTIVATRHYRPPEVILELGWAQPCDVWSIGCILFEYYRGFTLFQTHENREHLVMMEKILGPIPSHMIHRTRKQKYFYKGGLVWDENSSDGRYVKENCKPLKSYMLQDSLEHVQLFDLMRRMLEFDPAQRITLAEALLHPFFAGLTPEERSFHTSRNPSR

[18] = molecular target: Vascular endothelial growth factor receptor 2 (Homo sapiens) (UniProt P35968); conditions: Compound concentration 1000.0 nM
[19] = molecular target: Interleukin-1 receptor-associated kinase 1 (Homo sapiens) (UniProt P51617); conditions: Compound concentration 1000.0 nM

Cc1nc(C2CCN(C(=O)c3ccc(OC(F)(F)F)cc3N)CC2)c2ncc(N3CCN(C)CC3)cc2n1 [BAY-693]
inactive: residual activity [1] 100% | residual activity [2] 100% | residual activity [3] 96% | residual activity [4] 100% | inhibition [5] -6.02% | residual activity [6] 100% | residual activity [7] 100% | residual activity [8] 100% | residual activity [9] 100% | residual activity [10] 97% | residual activity [11] 81% | residual activity [12] 100% | residual activity [13] 94% | inhibition [14] 21.2% | residual activity [15] 84% | residual activity [16] 100% | residual activity [17] 94% | residual activity [18] 93% | residual activity [19] 100%

CN1CCN(c2cnc3c(C4CCN(C(=O)c5ccc(OC(F)(F)F)cc5N)CC4)ncnc3c2)CC1 [BAY-885]
inactive: residual activity [1] 100% | residual activity [2] 100% | residual activity [3] 100% | residual activity [4] 100% | inhibition [5] -3.41% | residual activity [6] 100% | residual activity [7] 100% | residual activity [8] 100% | residual activity [9] 100% | residual activity [10] 100% | residual activity [11] 74% | residual activity [12] 100% | residual activity [13] 96% | inhibition [14] 9.37% | residual activity [15] 100% | residual activity [16] 100% | residual activity [17] 100% | residual activity [18] 100% | residual activity [19] 100%
